Data as given in the NIST ThermoML archive (doi:10.1016/j.jct.2006.04.007).
Numbers after ± are expanded uncertainties.

Experiment: mn = molality of the nth substance listed, in mol/kg
Conditions: 350 kPa, Liquid; for apparent molar heat capacity: Extra sensitive DSC

CNC(C)=O [N-methylacetamide] + O
Conditions | apparent molar heat capacity [J/K/mol] | mass density [kg/m3]
278.15 K, m1 = 0.015 | 221 ± 52 | 999.98 ± 0.32
278.15 K, m1 = 0.04 | 230 ± 21 | 1000.02 ± 0.32
278.15 K, m1 = 0.07 | 243.9 ± 12 | 1000.14 ± 0.32
278.15 K, m1 = 0.1001 | 239.7 ± 8.8 | 1000.14 ± 0.32
278.15 K, m1 = 0.2002 | 240.2 ± 4.7 | 1000.14 ± 0.32
278.15 K, m1 = 0.4 | 238.2 ± 2.6 | 1000.26 ± 0.33
278.15 K, m1 = 0.599 | 251.1 ± 2.9 | 1000.35 ± 0.33
278.15 K, m1 = 0.8028 | 237.5 ± 2.3 | 1000.66 ± 0.33
278.15 K, m1 = 1 | 236.3 ± 1.9 | 1000.98 ± 0.33
283.15 K, m1 = 0.015 | 217 ± 60 | 999.8 ± 0.32
283.15 K, m1 = 0.04 | 225 ± 26 | 999.78 ± 0.32
283.15 K, m1 = 0.07 | 246 ± 15 | 999.85 ± 0.32
283.15 K, m1 = 0.1001 | 242.5 ± 9.2 | 999.83 ± 0.32
283.15 K, m1 = 0.2002 | 243.9 ± 4.9 | 999.82 ± 0.32
283.15 K, m1 = 0.4 | 242.3 ± 2.7 | 999.89 ± 0.32
283.15 K, m1 = 0.599 | 254.9 ± 3.1 | 1000 ± 0.32
283.15 K, m1 = 0.8028 | 242.4 ± 2.4 | 1000.14 ± 0.33
283.15 K, m1 = 1 | 241.4 ± 2.1 | 1000.43 ± 0.33
288.15 K, m1 = 0.015 | 213 ± 69 | 999.2 ± 0.3
288.15 K, m1 = 0.04 | 221 ± 28 | 999.19 ± 0.33
288.15 K, m1 = 0.07 | 247 ± 16 | 999.23 ± 0.33
288.15 K, m1 = 0.1001 | 247.1 ± 8.4 | 999.22 ± 0.33
288.15 K, m1 = 0.2002 | 247.9 ± 4.5 | 999.16 ± 0.33
288.15 K, m1 = 0.4 | 246 ± 2.5 | 999.24 ± 0.33
288.15 K, m1 = 0.599 | 257.6 ± 2.8 | 999.28 ± 0.33
288.15 K, m1 = 0.8028 | 245.8 ± 2.2 | 999.39 ± 0.33
288.15 K, m1 = 1 | 244.9 ± 1.9 | 999.54 ± 0.33
293.15 K, m1 = 0.015 | 220 ± 64 | –
293.15 K, m1 = 0.04 | 230 ± 25 | –
293.15 K, m1 = 0.07 | 250 ± 15 | –
293.15 K, m1 = 0.1001 | 251.4 ± 8.3 | –
293.15 K, m1 = 0.2002 | 251.6 ± 4.5 | –
293.15 K, m1 = 0.4 | 249.2 ± 2.5 | –
293.15 K, m1 = 0.599 | 259.8 ± 2.4 | –
293.15 K, m1 = 0.8028 | 248.7 ± 1.9 | –
293.15 K, m1 = 1 | 248 ± 1.7 | –
298.15 K, m1 = 0.015 | 228 ± 58 | –
298.15 K, m1 = 0.04 | 238 ± 22 | –
298.15 K, m1 = 0.07 | 252.1 ± 13 | –
298.15 K, m1 = 0.1001 | 254.8 ± 8.3 | –
298.15 K, m1 = 0.2002 | 254.7 ± 4.5 | –
298.15 K, m1 = 0.4 | 251.85 ± 2.5 | –
298.15 K, m1 = 0.599 | 261.9 ± 2.4 | –
298.15 K, m1 = 0.8028 | 251.4 ± 1.9 | –
298.15 K, m1 = 1 | 250.8 ± 1.7 | –
303.15 K, m1 = 0.015 | 232 ± 53 | –
303.15 K, m1 = 0.04 | 245 ± 21 | –
303.15 K, m1 = 0.07 | 254.5 ± 12 | –
303.15 K, m1 = 0.1001 | 259 ± 8.3 | –
303.15 K, m1 = 0.2002 | 258.7 ± 4.5 | –
303.15 K, m1 = 0.4 | 254.53 ± 2.5 | –
303.15 K, m1 = 0.599 | 264 ± 2.3 | –
303.15 K, m1 = 0.8028 | 254.1 ± 1.9 | –
303.15 K, m1 = 1 | 253.5 ± 1.6 | –
308.15 K, m1 = 0.015 | 236 ± 52 | 994.14 ± 0.35
308.15 K, m1 = 0.04 | 250.5 ± 20 | 994.12 ± 0.35
308.15 K, m1 = 0.07 | 257.5 ± 12 | 994.1 ± 0.35
308.15 K, m1 = 0.1001 | 262.8 ± 8.4 | 994.07 ± 0.35
308.15 K, m1 = 0.2002 | 261.8 ± 4.5 | 993.96 ± 0.35
308.15 K, m1 = 0.4 | 257.09 ± 2.5 | 993.88 ± 0.35
308.15 K, m1 = 0.599 | 266 ± 2.2 | 993.8 ± 0.35
308.15 K, m1 = 0.8028 | 256.5 ± 1.8 | 993.77 ± 0.35
308.15 K, m1 = 1 | 255.95 ± 1.6 | 993.7 ± 0.35
313.15 K, m1 = 0.015 | 243 ± 52 | –
313.15 K, m1 = 0.04 | 256.4 ± 20 | –
313.15 K, m1 = 0.07 | 259.8 ± 12 | –
313.15 K, m1 = 0.1001 | 264.8 ± 8.4 | –
313.15 K, m1 = 0.2002 | 263.9 ± 4.5 | –
313.15 K, m1 = 0.4 | 259.34 ± 2.5 | –
313.15 K, m1 = 0.599 | 267.9 ± 2.2 | –
313.15 K, m1 = 0.8028 | 258.7 ± 1.8 | –
313.15 K, m1 = 1 | 258.14 ± 1.6 | –
318.15 K, m1 = 0.015 | 252 ± 52 | 990.32 ± 0.36
318.15 K, m1 = 0.04 | 264.9 ± 20 | 990.29 ± 0.36
318.15 K, m1 = 0.07 | 261.2 ± 12 | 990.24 ± 0.36
318.15 K, m1 = 0.1001 | 266 ± 8.4 | 990.21 ± 0.36
318.15 K, m1 = 0.2002 | 265.6 ± 4.5 | 990.07 ± 0.36
318.15 K, m1 = 0.4 | 261.43 ± 2.5 | 989.92 ± 0.37
318.15 K, m1 = 0.599 | 269.7 ± 2.1 | 989.82 ± 0.37
318.15 K, m1 = 0.8028 | 260.8 ± 1.8 | 989.72 ± 0.37
318.15 K, m1 = 1 | 260.24 ± 1.6 | 989.61 ± 0.37
323.15 K, m1 = 0.015 | 259 ± 52 | –
323.15 K, m1 = 0.04 | 268.9 ± 20 | –
323.15 K, m1 = 0.07 | 262.6 ± 12 | –
323.15 K, m1 = 0.1001 | 267.4 ± 8.4 | –
323.15 K, m1 = 0.2002 | 267.4 ± 4.5 | –
323.15 K, m1 = 0.4 | 263.5 ± 2.6 | –
323.15 K, m1 = 0.599 | 271.4 ± 2.1 | –
323.15 K, m1 = 0.8028 | 262.77 ± 1.8 | –
323.15 K, m1 = 1 | 262.22 ± 1.5 | –
328.15 K, m1 = 0.015 | 260 ± 52 | 985.77 ± 0.38
328.15 K, m1 = 0.04 | 266.5 ± 20 | 985.75 ± 0.38
328.15 K, m1 = 0.07 | 265 ± 12 | 985.75 ± 0.38
328.15 K, m1 = 0.1001 | 269.3 ± 8.4 | 985.75 ± 0.38
328.15 K, m1 = 0.2002 | 269.2 ± 4.5 | –
328.15 K, m1 = 0.4 | 265.52 ± 2.6 | –
328.15 K, m1 = 0.599 | 273.1 ± 2.1 | –
328.15 K, m1 = 0.8028 | 264.63 ± 1.7 | –
328.15 K, m1 = 1 | 264.06 ± 1.5 | –
